Measurements from publication PMC4965148 (PLoS ONE, 2016).
Like-named read-outs stand apart in the source and are kept apart here.

Tests used:
[1] = molecular target: Muscarinic M2 (Homo sapiens, UniProt P08172); experiment: Selectivity panel, binding
[2] = molecular target: Glucocorticoid receptor (Homo sapiens, UniProt P04150); experiment: Selectivity panel, binding
[3] = molecular target: Adrenergic α1D (Homo sapiens, UniProt P25100); experiment: Selectivity panel, binding
[4] = molecular target: Dopamine D2 (Homo sapiens, UniProt P14416); experiment: Selectivity panel, binding
[5] = molecular target: PDE4; experiment: Selectivity panel, enzyme; format: biochemical; conditions: Human
[6] = molecular target: Progesterone receptor (Homo sapiens, UniProt P06401); experiment: Selectivity panel, binding
[7] = molecular target: 5-HT1A (Homo sapiens, UniProt P08908); experiment: Selectivity panel, binding; conditions: read-out: % inhibition @ 10 µM
[8] = Plasma and brain concentrations after dosing; format: in vivo, rat; conditions: for concentration at 30 min / Kp at 30 min: sc
Method: At specified time points after dosing, the forebrain (for occupancy), the remaining hindbrain (for brain drug exposure) and plasma were collected, frozen in chilled isopentane and stored at -80°C until assayed.
In brief, 50 μL of the plasma sample was extracted by protein precipitation with 150 μL acetonitrile containing an internal standard and 5 μL of supernatant injected into the LC-MS/MS system. Analytes were separated by reversed phase chromatography and detection of each analyte was achieved through selected reaction monitoring mode of mass spectrometry.

Sequence of Glucocorticoid receptor (P04150 whole entry): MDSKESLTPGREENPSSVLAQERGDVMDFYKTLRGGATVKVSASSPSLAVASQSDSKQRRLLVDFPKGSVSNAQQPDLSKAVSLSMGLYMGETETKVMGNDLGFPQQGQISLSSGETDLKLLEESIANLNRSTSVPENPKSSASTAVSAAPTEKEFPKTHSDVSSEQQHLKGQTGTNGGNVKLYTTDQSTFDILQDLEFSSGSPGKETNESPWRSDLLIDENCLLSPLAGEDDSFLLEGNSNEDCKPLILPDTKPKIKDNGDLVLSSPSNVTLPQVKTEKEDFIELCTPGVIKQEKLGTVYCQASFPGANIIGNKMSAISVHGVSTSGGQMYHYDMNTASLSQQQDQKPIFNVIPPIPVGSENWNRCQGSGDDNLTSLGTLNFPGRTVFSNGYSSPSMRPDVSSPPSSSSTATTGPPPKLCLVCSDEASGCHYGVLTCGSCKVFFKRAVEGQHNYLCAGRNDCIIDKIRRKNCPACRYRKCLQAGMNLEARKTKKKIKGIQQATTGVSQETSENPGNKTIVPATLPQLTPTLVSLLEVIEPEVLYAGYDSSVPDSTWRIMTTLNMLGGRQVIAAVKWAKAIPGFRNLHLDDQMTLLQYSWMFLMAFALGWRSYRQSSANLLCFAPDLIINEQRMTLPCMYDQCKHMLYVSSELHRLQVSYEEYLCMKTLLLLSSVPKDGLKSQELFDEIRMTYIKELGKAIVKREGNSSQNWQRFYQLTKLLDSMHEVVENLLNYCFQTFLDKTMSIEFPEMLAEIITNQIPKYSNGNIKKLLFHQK
Sequence of Dopamine D2 (P14416 whole entry): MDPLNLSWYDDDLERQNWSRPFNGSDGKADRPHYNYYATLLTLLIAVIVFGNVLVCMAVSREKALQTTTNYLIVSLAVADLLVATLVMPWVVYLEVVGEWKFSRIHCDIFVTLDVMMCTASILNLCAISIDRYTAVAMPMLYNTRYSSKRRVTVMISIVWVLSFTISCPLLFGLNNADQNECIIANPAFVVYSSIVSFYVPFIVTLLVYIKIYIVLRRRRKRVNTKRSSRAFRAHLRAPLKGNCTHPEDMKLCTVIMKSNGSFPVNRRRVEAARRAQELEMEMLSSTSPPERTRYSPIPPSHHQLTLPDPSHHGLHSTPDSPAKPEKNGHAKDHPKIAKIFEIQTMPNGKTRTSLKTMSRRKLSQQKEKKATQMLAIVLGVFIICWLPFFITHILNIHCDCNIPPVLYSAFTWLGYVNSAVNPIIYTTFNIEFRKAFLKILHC
Sequence of Adrenergic α1D (P25100 whole entry): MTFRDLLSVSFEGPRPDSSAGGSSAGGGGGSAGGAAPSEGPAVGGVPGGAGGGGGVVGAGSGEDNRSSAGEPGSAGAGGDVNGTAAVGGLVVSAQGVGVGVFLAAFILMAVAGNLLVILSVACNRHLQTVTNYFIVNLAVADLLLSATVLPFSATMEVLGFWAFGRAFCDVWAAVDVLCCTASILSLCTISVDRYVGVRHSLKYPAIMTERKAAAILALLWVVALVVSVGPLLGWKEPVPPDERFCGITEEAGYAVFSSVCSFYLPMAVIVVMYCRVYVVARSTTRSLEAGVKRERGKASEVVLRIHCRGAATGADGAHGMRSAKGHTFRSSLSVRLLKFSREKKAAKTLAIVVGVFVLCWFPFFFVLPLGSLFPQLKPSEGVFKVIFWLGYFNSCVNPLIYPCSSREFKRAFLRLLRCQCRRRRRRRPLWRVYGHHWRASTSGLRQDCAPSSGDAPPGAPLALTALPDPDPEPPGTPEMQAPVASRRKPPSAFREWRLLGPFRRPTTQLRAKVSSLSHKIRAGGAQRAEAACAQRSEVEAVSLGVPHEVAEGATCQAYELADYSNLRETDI
Sequence of Progesterone receptor (P06401 whole entry): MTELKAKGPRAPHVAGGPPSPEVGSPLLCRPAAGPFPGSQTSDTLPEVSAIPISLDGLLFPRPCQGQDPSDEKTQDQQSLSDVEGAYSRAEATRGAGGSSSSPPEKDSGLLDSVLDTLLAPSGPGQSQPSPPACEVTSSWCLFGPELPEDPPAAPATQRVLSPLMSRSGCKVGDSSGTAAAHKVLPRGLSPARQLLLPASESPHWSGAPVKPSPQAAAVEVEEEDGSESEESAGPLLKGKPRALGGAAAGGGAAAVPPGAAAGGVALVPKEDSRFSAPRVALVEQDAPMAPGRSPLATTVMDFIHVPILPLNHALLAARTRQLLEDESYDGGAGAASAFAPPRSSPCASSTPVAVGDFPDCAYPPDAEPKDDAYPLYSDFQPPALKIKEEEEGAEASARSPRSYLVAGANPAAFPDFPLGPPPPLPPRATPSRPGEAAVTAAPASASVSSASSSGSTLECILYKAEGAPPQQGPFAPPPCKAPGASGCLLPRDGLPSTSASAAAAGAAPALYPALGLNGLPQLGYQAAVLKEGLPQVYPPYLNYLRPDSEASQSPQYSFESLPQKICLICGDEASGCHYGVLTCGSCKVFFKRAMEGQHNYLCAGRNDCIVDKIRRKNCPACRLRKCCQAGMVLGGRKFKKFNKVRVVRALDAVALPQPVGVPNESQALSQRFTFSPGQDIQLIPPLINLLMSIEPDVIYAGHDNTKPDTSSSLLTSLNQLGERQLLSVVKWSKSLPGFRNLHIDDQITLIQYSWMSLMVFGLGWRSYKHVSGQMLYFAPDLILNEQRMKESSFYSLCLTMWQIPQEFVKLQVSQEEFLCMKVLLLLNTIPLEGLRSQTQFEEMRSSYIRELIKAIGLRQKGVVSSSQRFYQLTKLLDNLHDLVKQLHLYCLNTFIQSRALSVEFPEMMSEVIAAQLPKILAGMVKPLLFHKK
Sequence of Muscarinic M2 (P08172 whole entry): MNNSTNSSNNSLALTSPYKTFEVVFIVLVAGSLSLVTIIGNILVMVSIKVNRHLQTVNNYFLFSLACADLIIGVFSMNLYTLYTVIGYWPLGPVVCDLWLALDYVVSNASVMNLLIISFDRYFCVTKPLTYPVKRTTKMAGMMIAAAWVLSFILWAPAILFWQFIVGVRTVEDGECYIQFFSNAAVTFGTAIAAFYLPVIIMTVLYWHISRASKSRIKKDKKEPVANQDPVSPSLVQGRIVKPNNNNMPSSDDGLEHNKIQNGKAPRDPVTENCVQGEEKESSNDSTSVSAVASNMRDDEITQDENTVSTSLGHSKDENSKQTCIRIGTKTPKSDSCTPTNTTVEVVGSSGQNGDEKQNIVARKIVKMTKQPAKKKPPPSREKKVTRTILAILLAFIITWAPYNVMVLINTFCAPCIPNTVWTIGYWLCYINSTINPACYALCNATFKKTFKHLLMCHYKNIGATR
Sequence of 5-HT1A (P08908 whole entry): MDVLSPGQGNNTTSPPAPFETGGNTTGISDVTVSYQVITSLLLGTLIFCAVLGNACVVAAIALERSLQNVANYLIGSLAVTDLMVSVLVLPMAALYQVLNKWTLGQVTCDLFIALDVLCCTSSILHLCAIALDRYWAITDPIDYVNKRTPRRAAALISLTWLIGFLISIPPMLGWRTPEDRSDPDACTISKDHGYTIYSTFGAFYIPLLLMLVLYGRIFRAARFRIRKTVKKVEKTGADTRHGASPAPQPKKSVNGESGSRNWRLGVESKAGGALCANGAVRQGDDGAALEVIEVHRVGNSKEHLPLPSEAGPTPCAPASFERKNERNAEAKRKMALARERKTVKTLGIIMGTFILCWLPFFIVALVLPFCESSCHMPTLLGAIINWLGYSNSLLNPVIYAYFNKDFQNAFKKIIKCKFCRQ

Question: Which IC50 [1] does the source give for `c1cn(-c2cc(NC3=NC[C@@]4(CN5CCC4CC5)O3)ncn2)cn1` [BMS-933043, (2R)-N-(6-(1H-imidazol-1-yl)-4-pyrimidinyl)-4'H-spiro[4-azabicyclo[2.2.2]octane-2,5'-[1,3]oxazol]-2'-amine] here?
Answer: Its IC50 is 19.1 µM.

Question: And the IC50 [2]?
Answer: The IC50 was over 150 µM.

Question: What about the IC50 [3] of the same compound?
Answer: Its IC50 is over 30 µM.

Question: What about the IC50 [4] of the same compound?
Answer: Its IC50 is over 30 µM.

Question: And the IC50 [5]?
Answer: The IC50 was over 30 µM.

Question: And the IC50 [6]?
Answer: Its IC50 is over 150 µM.

Question: And the inhibition at 10 µM [7]?
Answer: The inhibition at 10 µM was 9%.

Question: What about the “Brain Mean ± SD” value ([8]; Rat MK-801 Set Shift (0.3-3 mg/kg study), 0.30 mg/kg po, 150 min) of the same compound?
Answer: The value was “< LLQ”.

Question: What about the concentration at 150 min ([8]; rat, brain, oral, 1 mg/kg, Rat MK-801 Set Shift (0.3-3 mg/kg study), 1 mg/kg po, 150 min, read-out: Brain Mean ± SD) of the same compound?
Answer: The concentration at 150 min was 13 ± 3 nM.

Question: And the concentration at 150 min ([8]; rat, brain, oral, 3 mg/kg, Rat MK-801 Set Shift (0.3-3 mg/kg study), 3 mg/kg po, 150 min, read-out: Brain Mean ± SD)?
Answer: The concentration at 150 min was 100 ± 39 nM.

Question: And the concentration at 150 min ([8]; rat, brain, oral, 3 mg/kg, Rat MK-801 Set Shift (3-30 mg/kg study), 3 mg/kg po, 150 min, read-out: Brain Mean ± SD)?
Answer: The concentration at 150 min was 132 ± 17 nM.

Question: What about the concentration at 150 min ([8]; rat, brain, oral, 10 mg/kg, Rat MK-801 Set Shift (3-30 mg/kg study), 10 mg/kg po, 150 min, read-out: Brain Mean ± SD) of the same compound?
Answer: The concentration at 150 min was 533 ± 111 nM.

Question: What about the concentration at 150 min ([8]; rat, brain, oral, 30 mg/kg, Rat MK-801 Set Shift (3-30 mg/kg study), 30 mg/kg po, 150 min, read-out: Brain Mean ± SD) of the same compound?
Answer: Its concentration at 150 min is 2220 nM.

Question: And the concentration at 30 min ([8]; rat, brain, 0.03 mg/kg, Rat MMN, 0.03 mg/kg sc, read-out: Brain Mean ± SD)?
Answer: The concentration at 30 min was 13 nM.

Question: What about the concentration at 30 min ([8]; rat, brain, 0.3 mg/kg, Rat MMN, 0.30 mg/kg sc, read-out: Brain Mean ± SD) of the same compound?
Answer: Its concentration at 30 min is 13 ± 0.65 nM.

Question: What about the concentration at 30 min ([8]; rat, brain, 0.3 mg/kg, Rat N40 Gating, 0.30 mg/kg sc, read-out: Brain Mean ± SD) of the same compound?
Answer: Its concentration at 30 min is 21 ± 6 nM.

Question: And the concentration at 30 min ([8]; rat, brain, 0.56 mg/kg, Rat N40 Gating, 0.56 mg/kg sc, read-out: Brain Mean ± SD)?
Answer: The concentration at 30 min was 42 ± 10 nM.

Question: What about the concentration at 30 min ([8]; rat, brain, 1 mg/kg, Rat MMN, 1 mg/kg sc, read-out: Brain Mean ± SD) of the same compound?
Answer: The concentration at 30 min was 74 ± 18 nM.

Question: What about the concentration at 30 min ([8]; rat, brain, 1 mg/kg, Rat N40 Gating, 1 mg/kg sc, read-out: Brain Mean ± SD) of the same compound?
Answer: The concentration at 30 min was 97 ± 14 nM.

Question: And the concentration at 30 min ([8]; rat, brain, 3 mg/kg, Rat MMN, 3 mg/kg sc, read-out: Brain Mean ± SD)?
Answer: The concentration at 30 min was 378 ± 161 nM.

Question: What about the concentration at 30 min ([8]; rat, brain, 3 mg/kg, Rat N40 Gating, 3 mg/kg sc, read-out: Brain Mean ± SD) of the same compound?
Answer: The concentration at 30 min was 372 ± 33 nM.

Question: And the Kp at 150 min ([8]; rat, brain/plasma, oral, 1 mg/kg, Rat MK-801 Set Shift (0.3-3 mg/kg study), 1 mg/kg po, 150 min)?
Answer: The Kp at 150 min was 0.25.

Question: And the Kp at 150 min ([8]; rat, brain/plasma, oral, 3 mg/kg, Rat MK-801 Set Shift (0.3-3 mg/kg study), 3 mg/kg po, 150 min)?
Answer: Its Kp at 150 min is 0.24.

Question: What about the Kp at 150 min ([8]; rat, brain/plasma, oral, 3 mg/kg, Rat MK-801 Set Shift (3-30 mg/kg study), 3 mg/kg po, 150 min) of the same compound?
Answer: Its Kp at 150 min is 0.29.

Question: And the Kp at 150 min ([8]; rat, brain/plasma, oral, 10 mg/kg, Rat MK-801 Set Shift (3-30 mg/kg study), 10 mg/kg po, 150 min)?
Answer: Its Kp at 150 min is 0.29.

Question: And the Kp at 150 min ([8]; rat, brain/plasma, oral, 30 mg/kg, Rat MK-801 Set Shift (3-30 mg/kg study), 30 mg/kg po, 150 min)?
Answer: The Kp at 150 min was 0.31.

Question: And the Kp ([8]; rat, brain/plasma, other: subcutaneous or oral (pooled over all rat studies), rats)?
Answer: Its Kp is 0.28.

Question: And the Kp at 30 min ([8]; rat, brain/plasma, 0.03 mg/kg, Rat MMN, 0.03 mg/kg sc)?
Answer: The Kp at 30 min was 0.57.

Question: And the Kp at 30 min ([8]; rat, brain/plasma, 0.3 mg/kg, Rat MMN, 0.30 mg/kg sc)?
Answer: The Kp at 30 min was 0.17.

Question: What about the Kp at 30 min ([8]; rat, brain/plasma, 0.3 mg/kg, Rat N40 Gating, 0.30 mg/kg sc) of the same compound?
Answer: The Kp at 30 min was 0.26.

Question: What about the Kp at 30 min ([8]; rat, brain/plasma, 0.56 mg/kg, Rat N40 Gating, 0.56 mg/kg sc) of the same compound?
Answer: The Kp at 30 min was 0.3.

Question: What about the Kp at 30 min ([8]; rat, brain/plasma, 1 mg/kg, Rat MMN, 1 mg/kg sc) of the same compound?
Answer: Its Kp at 30 min is 0.19.

Question: And the Kp at 30 min ([8]; rat, brain/plasma, 1 mg/kg, Rat N40 Gating, 1 mg/kg sc)?
Answer: Its Kp at 30 min is 0.33.

Question: And the Kp at 30 min ([8]; rat, brain/plasma, 3 mg/kg, Rat MMN, 3 mg/kg sc)?
Answer: The Kp at 30 min was 0.19.

Question: What about the Kp at 30 min ([8]; rat, brain/plasma, 3 mg/kg, Rat N40 Gating, 3 mg/kg sc) of the same compound?
Answer: Its Kp at 30 min is 0.27.

Question: What about the concentration at 150 min ([8]; rat, plasma, oral, 0.3 mg/kg, Rat MK-801 Set Shift (0.3-3 mg/kg study), 0.30 mg/kg po, 150 min, read-out: Plasma Mean ± SD) of the same compound?
Answer: The concentration at 150 min was 5.7 ± 0.9 nM.

Question: What about the concentration at 150 min ([8]; rat, plasma, oral, 1 mg/kg, Rat MK-801 Set Shift (0.3-3 mg/kg study), 1 mg/kg po, 150 min, read-out: Plasma Mean ± SD) of the same compound?
Answer: Its concentration at 150 min is 50 ± 7.4 nM.

Question: What about the concentration at 150 min ([8]; rat, plasma, oral, 3 mg/kg, Rat MK-801 Set Shift (0.3-3 mg/kg study), 3 mg/kg po, 150 min, read-out: Plasma Mean ± SD) of the same compound?
Answer: The concentration at 150 min was 410 ± 97 nM.

Question: And the concentration at 150 min ([8]; rat, plasma, oral, 3 mg/kg, Rat MK-801 Set Shift (3-30 mg/kg study), 3 mg/kg po, 150 min, read-out: Plasma Mean ± SD)?
Answer: Its concentration at 150 min is 452 ± 60 nM.

Question: What about the concentration at 150 min ([8]; rat, plasma, oral, 10 mg/kg, Rat MK-801 Set Shift (3-30 mg/kg study), 10 mg/kg po, 150 min, read-out: Plasma Mean ± SD) of the same compound?
Answer: The concentration at 150 min was 1860 nM.

Question: What about the concentration at 150 min ([8]; rat, plasma, oral, 30 mg/kg, Rat MK-801 Set Shift (3-30 mg/kg study), 30 mg/kg po, 150 min, read-out: Plasma Mean ± SD) of the same compound?
Answer: Its concentration at 150 min is 7260 nM.

Question: And the concentration at 150 min ([8]; rat, plasma, po, 1 mg/kg, Rat Neonatal PCP ID/ED, 1 mg/kg po, 150 min, read-out: Plasma Mean ± SD)?
Answer: Its concentration at 150 min is 21 ± 9 nM.

Question: And the concentration at 150 min ([8]; rat, plasma, po, 3 mg/kg, Rat Neonatal PCP ID/ED, 3 mg/kg po, 150 min, read-out: Plasma Mean ± SD)?
Answer: The concentration at 150 min was 225 ± 50 nM.

Question: What about the concentration at 30 min ([8]; rat, plasma, 0.01 mg/kg, Rat MMN, 0.01 mg/kg sc, read-out: Plasma Mean ± SD) of the same compound?
Answer: Its concentration at 30 min is 2.4 ± 0.1 nM.

Question: What about the concentration at 30 min ([8]; rat, plasma, 0.03 mg/kg, Rat MMN, 0.03 mg/kg sc, read-out: Plasma Mean ± SD) of the same compound?
Answer: The concentration at 30 min was 23 ± 29 nM.
